Measurements published in PubChem BioAssay AID2060495 (Molecular Pharmacology Branch, DTP, NCI, 2025).
pIC50: −log10 of the molar value.

Tested on: 521955-158-R2-J5-PDC complex spheroid viability
Assay: Anticancer human tumor 521955-158-R2-J5-PDC patient-derived pancreatic carcinoma cell line growth inhibition [GQUAD]
Conditions: for pIC50: curve of first compound; for viability, T/C: stronger effect = lower value
Summary of the method: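 Multi-cell-type spheroids of tumor cells with HUVEC and mesenchymal stem cells, treated with drug combinations. Concentrations descend in half-log steps from near clinical Cmax, or from 10 microM where Cmax is unknown; viability read-out.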

[1] = second compound 0.0316 µM, first compound 0.000999 µM
[2] = second compound 0.0316 µM, first compound 0.00316 µM
[3] = second compound 0.0316 µM, first compound 0.00999 µM
[4] = second compound 0.0316 µM, first compound 0.0316 µM
[5] = second compound 0.0316 µM, first compound 0.0999 µM
[6] = second compound 0.0316 µM, first compound 0.316 µM
[7] = second compound 0.1 µM, first compound 0.000999 µM
[8] = second compound 0.1 µM, first compound 0.00316 µM
[9] = second compound 0.1 µM, first compound 0.00999 µM
[10] = second compound 0.1 µM, first compound 0.0316 µM
[11] = second compound 0.1 µM, first compound 0.0999 µM
[12] = second compound 0.1 µM, first compound 0.316 µM
[13] = second compound 0.316 µM, first compound 0.000999 µM
[14] = second compound 0.316 µM, first compound 0.00316 µM
[15] = second compound 0.316 µM, first compound 0.00999 µM
[16] = second compound 0.316 µM, first compound 0.0316 µM
[17] = second compound 0.316 µM, first compound 0.0999 µM
[18] = second compound 0.316 µM, first compound 0.316 µM
[19] = second compound 1 µM, first compound 0.000999 µM
[20] = second compound 1 µM, first compound 0.00316 µM
[21] = second compound 1 µM, first compound 0.00999 µM
[22] = second compound 1 µM, first compound 0.0316 µM
[23] = second compound 1 µM, first compound 0.0999 µM
[24] = second compound 1 µM, first compound 0.316 µM
[25] = second compound 3.16 µM, first compound 0.000999 µM
[26] = second compound 3.16 µM, first compound 0.00316 µM
[27] = second compound 3.16 µM, first compound 0.00999 µM
[28] = second compound 3.16 µM, first compound 0.0316 µM
[29] = second compound 3.16 µM, first compound 0.0999 µM
[30] = second compound 3.16 µM, first compound 0.316 µM
[31] = second compound 10 µM, first compound 0.000999 µM
[32] = second compound 10 µM, first compound 0.00316 µM
[33] = second compound 10 µM, first compound 0.00999 µM
[34] = second compound 10 µM, first compound 0.0316 µM
[35] = second compound 10 µM, first compound 0.0999 µM
[36] = second compound 10 µM, first compound 0.316 µM
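Also: spheroids exposed to agents for one week before reading.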
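For viability, T/C in this document: 100% = DMSO vehicle control viability.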

Work on `CCc1c2c(nc3ccc(O)cc13)-c1cc3c(c(=O)n1C2)COC(=O)[C@]3(O)CC` + CN(C)c1ccc(Nc2c3ccc(NC(=O)CCN4CCCC4)cc3nc3cc(NC(=O)CCN4CCCC4)ccc23)cc1 yielded a pIC50 (second compound 0.0316 µM) of 8.48, a pIC50 (second compound 0.1 µM) of 8.52 and a pIC50 (second compound 0.316 µM) of 8.60. It also gave a pIC50 (second compound 1 µM) of 8.62, a pIC50 (second compound 3.16 µM) of 8.64 and a pIC50 (second compound 10 µM) of 8.81. For the same compound, the viability, T/C [1] was 74.6%, the viability, T/C [2] was 49.6% and the viability, T/C [3] was 32.4%. It also gave a viability, T/C [4] of 15.1%, a viability, T/C [5] of 11.6% and a viability, T/C [6] of 9.29%. The viability, T/C [7] was 80.2%, the viability, T/C [8] was 46.8% and the viability, T/C [9] was 31.7%. The viability, T/C [10] was 18%, the viability, T/C [11] was 9.85% and the viability, T/C [12] was 7.27%. For the same compound, the viability, T/C [13] was 84.6%, the viability, T/C [14] was 39.3% and the viability, T/C [15] was 25.3%. It also gave a viability, T/C [16] of 12.8%, a viability, T/C [17] of 11.6% and a viability, T/C [18] of 4.59%. The viability, T/C [19] was 89.1%, the viability, T/C [20] was 33.5% and the viability, T/C [21] was 25.4%. For the same compound, the viability, T/C [22] was 15.4%, the viability, T/C [23] was 9.81% and the viability, T/C [24] was 6.13%. The viability, T/C [25] was 75.5%, the viability, T/C [26] was 33.7% and the viability, T/C [27] was 30.4%. The viability, T/C [28] was 17.9%, the viability, T/C [29] was 7.36% and the viability, T/C [30] was 8.33%. The viability, T/C [31] was 56.9%, the viability, T/C [32] was 37.8% and the viability, T/C [33] was 25%. The viability, T/C [34] was 11.8%, the viability, T/C [35] was 5.13% and the viability, T/C [36] was 6.11%.
Compound `CC[C@@]1(O)C(=O)OCc2c1cc1n(c2=O)Cc2cc3c(CN(C)C)c(O)ccc3nc2-1` + Cc1[nH]c2ccc(F)cc2c1-c1nc2c3cccnc3c3ncccc3c2[nH]1 has a pIC50 (second compound 0.0316 µM) of 7.27, a pIC50 (second compound 0.1 µM) of 7.18 and a pIC50 (second compound 0.316 µM) of 7.18. The pIC50 (second compound 1 µM) was 7.17, the pIC50 (second compound 3.16 µM) was 7.21 and the pIC50 (second compound 10 µM) was 7.16. It also gave a viability, T/C [1] of 108%, a viability, T/C [2] of 96.6% and a viability, T/C [3] of 123%. It also gave a viability, T/C [4] of 69.8%, a viability, T/C [5] of 29% and a viability, T/C [6] of 9.65%. For the same compound, the viability, T/C [7] was 90.7%, the viability, T/C [8] was 115% and the viability, T/C [9] was 100%. The viability, T/C [10] was 91.8%, the viability, T/C [11] was 26% and the viability, T/C [12] was 10.2%. For the same compound, the viability, T/C [13] was 104%, the viability, T/C [14] was 120% and the viability, T/C [15] was 109%. For the same compound, the viability, T/C [16] was 84.7%, the viability, T/C [17] was 30.9% and the viability, T/C [18] was 9.94%. For the same compound, the viability, T/C [19] was 115%, the viability, T/C [20] was 97% and the viability, T/C [21] was 115%. It also gave a viability, T/C [22] of 95.3%, a viability, T/C [23] of 26.1% and a viability, T/C [24] of 9.43%. It also gave a viability, T/C [25] of 115%, a viability, T/C [26] of 108% and a viability, T/C [27] of 103%. For the same compound, the viability, T/C [28] was 70.8%, the viability, T/C [29] was 34.1% and the viability, T/C [30] was 10.8%. The viability, T/C [31] was 91.8%, the viability, T/C [32] was 98% and the viability, T/C [33] was 97.9%. It also gave a viability, T/C [34] of 84.7%, a viability, T/C [35] of 33.8% and a viability, T/C [36] of 15.6%.
Work on `CC[C@@]1(O)C(=O)OCc2c1cc1n(c2=O)Cc2cc3c(CN(C)C)c(O)ccc3nc2-1` + CN(C)c1ccc(Nc2c3ccc(NC(=O)CCN4CCCC4)cc3nc3cc(NC(=O)CCN4CCCC4)ccc23)cc1 yielded a pIC50 (second compound 0.0316 µM) of 6.92, a pIC50 (second compound 0.1 µM) of 7.03 and a pIC50 (second compound 0.316 µM) of 7.06. The pIC50 (second compound 1 µM) was 7.01, the pIC50 (second compound 3.16 µM) was 7.10 and the pIC50 (second compound 10 µM) was 7.10. The viability, T/C [1] was 106%, the viability, T/C [2] was 118% and the viability, T/C [3] was 110%. For the same compound, the viability, T/C [4] was 86.7%, the viability, T/C [5] was 55.8% and the viability, T/C [6] was 28.2%. The viability, T/C [7] was 85.3%, the viability, T/C [8] was 108% and the viability, T/C [9] was 95.1%. The viability, T/C [10] was 82.2%, the viability, T/C [11] was 48.2% and the viability, T/C [12] was 41.2%. It also gave a viability, T/C [13] of 101%, a viability, T/C [14] of 98.5% and a viability, T/C [15] of 98.7%. It also gave a viability, T/C [16] of 89.4%, a viability, T/C [17] of 44.3% and a viability, T/C [18] of 28.6%. The viability, T/C [19] was 131%, the viability, T/C [20] was 91.6% and the viability, T/C [21] was 95.7%. It also gave a viability, T/C [22] of 82.8%, a viability, T/C [23] of 43.1% and a viability, T/C [24] of 24.9%. It also gave a viability, T/C [25] of 101%, a viability, T/C [26] of 101% and a viability, T/C [27] of 81.2%. It also gave a viability, T/C [28] of 76.9%, a viability, T/C [29] of 41.2% and a viability, T/C [30] of 26.5%. The viability, T/C [31] was 63.7%, the viability, T/C [32] was 62.3% and the viability, T/C [33] was 53.4%. For the same compound, the viability, T/C [34] was 63.5%, the viability, T/C [35] was 45.2% and the viability, T/C [36] was 31.4%.
In the case of `CC1COCCN1c1cc(C2(S(C)(=N)=O)CC2)nc(-c2ccnc3[nH]ccc23)n1` (stereo not drawn) + Cc1cnc(CNC(=O)c2c(=O)c3ccc(N4CCCN(C)CC4)nc3n3c2sc2ccccc23)cn1, the pIC50 (second compound 0.0316 µM) was 6.21, the pIC50 (second compound 0.1 µM) was 6.27 and the pIC50 (second compound 0.316 µM) was greater than 7.50. It also gave a pIC50 (second compound 1 µM) greater than 7.50, a pIC50 (second compound 3.16 µM) greater than 7.50 and a pIC50 (second compound 10 µM) greater than 7.50. It also gave a viability, T/C [4] of 80.3%, a viability, T/C (second compound 0.0316 µM, first compound 0.1 µM) of 86.1% and a viability, T/C [6] of 82.4%. For the same compound, the viability, T/C (second compound 0.0316 µM, first compound 1 µM) was 26.1%, the viability, T/C (second compound 0.0316 µM, first compound 3.16 µM) was 9.1% and the viability, T/C (second compound 0.0316 µM, first compound 10 µM) was 10.6%. For the same compound, the viability, T/C [10] was 59.4%, the viability, T/C (second compound 0.1 µM, first compound 0.1 µM) was 60.2% and the viability, T/C [12] was 76.2%. The viability, T/C (second compound 0.1 µM, first compound 1 µM) was 32.7%, the viability, T/C (second compound 0.1 µM, first compound 3.16 µM) was 12.3% and the viability, T/C (second compound 0.1 µM, first compound 10 µM) was 10.4%. The viability, T/C [16] was 42.2%, the viability, T/C (second compound 0.316 µM, first compound 0.1 µM) was 46.2% and the viability, T/C [18] was 53.2%. The viability, T/C (second compound 0.316 µM, first compound 1 µM) was 32.8%, the viability, T/C (second compound 0.316 µM, first compound 3.16 µM) was 13.7% and the viability, T/C (second compound 0.316 µM, first compound 10 µM) was 11.3%. For the same compound, the viability, T/C [22] was 31%, the viability, T/C (second compound 1 µM, first compound 0.1 µM) was 24.5% and the viability, T/C [24] was 23.4%. It also gave a viability, T/C (second compound 1 µM, first compound 1 µM) of 23.7%, a viability, T/C (second compound 1 µM, first compound 3.16 µM) of 15.4% and a viability, T/C (second compound 1 µM, first compound 10 µM) of 11.1%. For the same compound, the viability, T/C [28] was 21.3%, the viability, T/C (second compound 3.16 µM, first compound 0.1 µM) was 23.6% and the viability, T/C [30] was 21.5%. The viability, T/C (second compound 3.16 µM, first compound 1 µM) was 19.3%, the viability, T/C (second compound 3.16 µM, first compound 3.16 µM) was 13.6% and the viability, T/C (second compound 3.16 µM, first compound 10 µM) was 9.15%. The viability, T/C [34] was 16.2%, the viability, T/C (second compound 10 µM, first compound 0.1 µM) was 19.1% and the viability, T/C [36] was 20.9%. For the same compound, the viability, T/C (second compound 10 µM, first compound 1 µM) was 22.8%, the viability, T/C (second compound 10 µM, first compound 3.16 µM) was 14.3% and the viability, T/C (second compound 10 µM, first compound 10 µM) was 7.66%.
